Test results published in patent US11572399B2, “Long-acting GIP peptide analogues” (University of Copenhagen, priority 2017, dated 2023).
Peptide text beside a SMILES is read from it. * marks the point of attachment. C16 diacid = O=C(O)CCCCCCCCCCCCCCC(=O)*; Palmitoyl = CCCCCCCCCCCCCCCC(=O)*

What was measured:
human GIP receptor [1] = target: T1, human GIP receptor (Homo sapiens, UniProt P48546); assay: cAMP accumulation assay, antagonism of a GIP-mediated cAMP response (50-80% of max); assay type: cell-based; conditions: for cAMP - antagonisme fold (paired): fold vs GIP(3-30)NH2, Table 3b; for IC50: transiently transfected COS-7 cells, Table 1 and text, read-out: cAMP antagonism nM (IC50, antagonistic potency)
T1 construct: host or cells: COS-7, transient transfection (calcium phosphate), cDNA in pCMV-Script
T1 sequence (P48546 22-466): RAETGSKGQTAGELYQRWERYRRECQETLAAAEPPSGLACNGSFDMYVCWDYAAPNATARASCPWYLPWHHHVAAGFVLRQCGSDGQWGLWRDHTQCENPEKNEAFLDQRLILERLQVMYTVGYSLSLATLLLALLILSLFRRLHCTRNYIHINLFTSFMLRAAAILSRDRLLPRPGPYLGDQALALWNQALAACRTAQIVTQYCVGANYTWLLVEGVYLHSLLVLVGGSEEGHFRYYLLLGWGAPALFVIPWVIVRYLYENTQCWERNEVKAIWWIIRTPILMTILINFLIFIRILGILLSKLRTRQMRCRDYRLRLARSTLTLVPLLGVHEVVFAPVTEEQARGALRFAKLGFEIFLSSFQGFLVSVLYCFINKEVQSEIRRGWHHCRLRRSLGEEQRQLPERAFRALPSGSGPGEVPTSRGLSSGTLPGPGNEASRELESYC
Method: The day after, the cells were washed twice with Hepes buffered saline (HBS) buffer and incubated with HBS and 1 mM 3-isobutyl-1-methylxanthine (IBMX) for 30 min at 37° C. […] The HitHunter™ cAMP XS assay (DiscoveRx) was carried out according to the manufacturer's instructions.

human GIP receptor [2] = target: T1, human GIP receptor; assay: cAMP accumulation assay, agonism (ligand alone); assay type: cell-based; conditions: COS-7 cells, Table 1; for Emax: COS-7, intrinsic cAMP activity
[3] = Elimination half-life (T1/2) estimated in pigs, subcutaneous, RIA; assay type: in vivo; conditions: pig; for half-life: plasma, sc, pigs, subcutaneous 1-10 nmol/kg
Method: LYH/LYD strain pigs or mini-pigs were housed in the animal facility at the Faculty of Health and Medical Sciences.
A pig was subcutaneously administered one of the lipidated GIP(3-30)NH2 analogs (compound AT117) (1-10 nmol/kg, total volume 2-6 mL) after which 10-18 blood samples were collected before and up to 57 hours post subcutaneous administration) from a central venous catheter. The catheter was flushed with saline and heparin between samples. Blood was collected into cold EDTA tubes, centrifuged and plasma was kept at −20° C. pending analyses. When experiments are completed, the animals will be killed.
Concentrations of the lipidated GIP(3-30)NH2 or GIP(5-30)NH2 analogues in blood samples from pigs were analysed by RIA. Analogues' immunoreactivity was determined using antiserum Ab95234, Ab95235, Ab95236, a polyclonal in-house antibody raised in rabbits specific for either the mid region of GIP(1-30)NH2 or amidated C-terminus of GIP(3-30)NH2.

human GIP receptor [4] = target: T1, human GIP receptor; assay: 125I-human GIP competition binding assay, in the presence and absence of 2% HSA; conditions: for Binding fold (paired): fold decrease in affinity compared to GIP(3-30)NH2; for Fold change in affinity, IC50 (plus HSA)/IC50 (minus HSA): presence vs absence of 2% HSA, proxy for albumin binding;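 on all read-outs here: nonspecific binding taken as radioligand bound to untransfected cells, IC50 obtained from nonlinear regression fits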
[5] = 0.1% casein, no HSA, Table 3b, read-out: Binding logIC50 0.1% casein (converted)
[6] = Table 3b, initial data, read-out: Binding IC50
[7] = heterologous competition binding, transiently transfected COS-7 cells expressing the human GIP receptor, read-out: Binding

SMILES	cAMP - antagonisme fold (paired) (human GIP receptor [1]) [fold]	IC50 (human GIP receptor [1]) [nM]	Emax (human GIP receptor [2]) [%]	half-life [3] [h]	T½ ([3]; subcutaneous) [h]	IC50 (human GIP receptor [4]; [5]) [nM]	IC50 (human GIP receptor [4]; 2% HSA, Table 3b, read-out: Binding logIC50 2% HSA (converted)) [nM]	IC50 (human GIP receptor [4]; [6]) [nM]	IC50 (human GIP receptor [4]; binding in presence of 2% HSA, read-out: logIC50 2% HSA (converted)) [nM]	Binding fold (paired) (human GIP receptor [4]; Table 3b) [fold]	IC50 (human GIP receptor [4]; [7]) [nM]	Fold change in affinity, IC50 (plus HSA)/IC50 (minus HSA) (human GIP receptor [4]) [fold]	EC50 (human GIP receptor [2]; read-out: cAMP agonism nM (EC50)) [nM]
CCCCCCCCCCCCCCCC(=O)NCCCC[C@H](NC(=O)[C@@H](NC(=O)[C@H](CCCCN)NC(=O)[C@H](CC(=O)O)NC(=O)[C@H](CCSC)NC(=O)[C@H](C)NC(=O)[C@@H](NC(=O)[C@H](CO)NC(=O)[C@H](Cc1ccc(O)cc1)NC(=O)[C@H](CC(=O)O)NC(=O)[C@H](CO)NC(=O)[C@@H](NC(=O)[C@H](Cc1ccccc1)NC(=O)[C@@H](NC(=O)CNC(=O)[C@@H](N)CCC(=O)O)[C@@H](C)O)[C@@H](C)CC)[C@@H](C)CC)[C@@H](C)CC)C(=O)N[C@@H](CCC(N)=O)C(=O)N[C@@H](CCC(N)=O)C(=O)N[C@@H](CC(=O)O)C(=O)N[C@@H](Cc1ccccc1)C(=O)N[C@H](C(=O)N[C@@H](CC(N)=O)C(=O)N[C@@H](Cc1c[nH]c2ccccc12)C(=O)N[C@@H](CC(C)C)C(=O)N[C@@H](CC(C)C)C(=O)N[C@@H](C)C(=O)N[C@@H](CCC(N)=O)C(=O)N[C@@H](CCCCN)C(N)=O)C(C)C [AT117, [hGIP(3-30)NH2[H18K]-C16/18]] (H-EGTFISDYSIAMDKIK(Palmitoyl)QQDFVNWLLAQK-NH2; N-terminus assumed)	2.3	15	0	8	8	110	1730	292	1730	12	292	15.7	–
CC[C@H](C)[C@H](NC(=O)[C@H](CO)NC(=O)[C@H](Cc1ccc(O)cc1)NC(=O)[C@H](CC(=O)O)NC(=O)[C@H](CO)NC(=O)[C@@H](NC(=O)[C@H](Cc1ccccc1)NC(=O)[C@@H](NC(=O)CNC(=O)[C@@H](N)CCC(=O)O)[C@@H](C)O)[C@@H](C)CC)C(=O)N[C@@H](C)C(=O)N[C@@H](CCSC)C(=O)N[C@@H](CC(=O)O)C(=O)N[C@@H](CCCNC(=N)N)C(=O)N[C@H](C(=O)N[C@@H](CCCCNC(=O)CCCCCCCCCCCCCCC(=O)O)C(=O)N[C@@H](CCC(N)=O)C(=O)N[C@@H](CCC(N)=O)C(=O)N[C@@H](CC(=O)O)C(=O)N[C@@H](Cc1ccccc1)C(=O)N[C@H](C(=O)N[C@@H](CC(N)=O)C(=O)N[C@@H](Cc1c[nH]c2ccccc12)C(=O)N[C@@H](CC(C)C)C(=O)N[C@@H](CC(C)C)C(=O)N[C@@H](C)C(=O)N[C@@H](CCC(N)=O)C(=O)N[C@@H](CCCNC(=N)N)C(N)=O)C(C)C)[C@@H](C)CC [AT159, [hGIP(3-30)NH2[K16R; H18K; K30R]-C16diacid/18]] (H-EGTFISDYSIAMDRIK(C16 diacid)QQDFVNWLLAQR-NH2; N-terminus assumed)	0.1	6	6	6	–	25	–	25	–	3	18	0.8	2
